Reference: PubChem BioAssay (NCI)
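Interpolation was linear, between the two tested concentrations surrounding the appropriate level; five concentrations were tested over 48 hours in 96-well plates. The concentration for full growth arrest is given as TGI.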

Experiments:
Assay in all cases: inhibition of tumour cell growth, NCI panel, 48 h
RPMI-8226 leukemia = tested on: RPMI-8226 leukemia
CAKI-1 renal = tested on: CAKI-1 renal
HCT-15 colon = tested on: HCT-15 colon
NCI-H460 lung = tested on: NCI-H460 lung
K-562 leukemia = tested on: K-562 leukemia
SR leukemia = tested on: SR leukemia
TK-10 renal = tested on: TK-10 renal
OVCAR-8 ovarian = tested on: OVCAR-8 ovarian
HCC-2998 colon = tested on: HCC-2998 colon
ACHN renal = tested on: ACHN renal
HOP-62 NSCLC = tested on: HOP-62 NSCLC
SW-620 colon = tested on: SW-620 colon
NCI-H522 lung = tested on: NCI-H522 lung
OVCAR-3 ovarian = tested on: OVCAR-3 ovarian
A549 NSCLC = tested on: A549 NSCLC
CCRF-CEM leukemia = tested on: CCRF-CEM leukemia
NCI-H23 lung = tested on: NCI-H23 lung
LXFL 529 NSCLC = tested on: LXFL 529 NSCLC
HL-60(TB) leukemia = tested on: HL-60(TB) leukemia
COLO 205 colon = tested on: COLO 205 colon
SNB-19 CNS = tested on: SNB-19 CNS
SNB-75 CNS = tested on: SNB-75 CNS
KM20L2 colon = tested on: KM20L2 colon
SK-MEL-2 melanoma = tested on: SK-MEL-2 melanoma
HCT-116 colon = tested on: HCT-116 colon
UO-31 renal = tested on: UO-31 renal
OVCAR-5 ovarian = tested on: OVCAR-5 ovarian
OVCAR-4 ovarian = tested on: OVCAR-4 ovarian
U251 CNS = tested on: U251 CNS
UACC-62 melanoma = tested on: UACC-62 melanoma
IGROV1 ovarian = tested on: IGROV1 ovarian
KM12 colon = tested on: KM12 colon
DMS 273 small cell lung = tested on: DMS 273 small cell lung
M14 melanoma = tested on: M14 melanoma
DLD-1 colon = tested on: DLD-1 colon
MALME-3M melanoma = tested on: MALME-3M melanoma
HT29 colon = tested on: HT29 colon
SF-539 CNS = tested on: SF-539 CNS
NCI-H226 lung = tested on: NCI-H226 lung
SK-MEL-5 melanoma = tested on: SK-MEL-5 melanoma
SF-295 CNS = tested on: SF-295 CNS
DMS 114 small cell lung = tested on: DMS 114 small cell lung
SF-268 CNS = tested on: SF-268 CNS
MOLT-4 leukemia = tested on: MOLT-4 leukemia
786-0 renal = tested on: 786-0 renal
HOP-92 NSCLC = tested on: HOP-92 NSCLC
M19-MEL melanoma = tested on: M19-MEL melanoma
UACC-257 melanoma = tested on: UACC-257 melanoma
SK-OV-3 ovarian = tested on: SK-OV-3 ovarian
DU-145 prostate = tested on: DU-145 prostate
MDA-MB-435 = tested on: MDA-MB-435
NCI/ADR-RES ovarian = tested on: NCI/ADR-RES ovarian
MDA-N = tested on: MDA-N
RXF 393 renal = tested on: RXF 393 renal
EKVX NSCLC = tested on: EKVX NSCLC
MDA-MB-231 breast = tested on: MDA-MB-231 breast
PC-3 prostate = tested on: PC-3 prostate
SN12C renal = tested on: SN12C renal
T-47D breast = tested on: T-47D breast
LOX IMVI melanoma = tested on: LOX IMVI melanoma
BT-549 breast = tested on: BT-549 breast
MCF7 breast = tested on: MCF7 breast
HS 578T breast = tested on: HS 578T breast
SK-MEL-28 melanoma = tested on: SK-MEL-28 melanoma
A498 renal = tested on: A498 renal
SNB-78 CNS = tested on: SNB-78 CNS
HOP-18 NSCLC = tested on: HOP-18 NSCLC

`COC(=O)[C@H]1[C@H]2C[C@@H]3c4[nH]c5cc(OC)ccc5c4CCN3C[C@H]2C[C@@H](OC(=O)c2cc(OC)c(OC)c(OC)c2)[C@@H]1OC` showed a TGI (RPMI-8226 leukemia) of 39.5 µM, a TGI (CAKI-1 renal) of 36 µM and a TGI (HCT-15 colon) of 87.8 µM. It also gave a TGI (NCI-H460 lung) of 59.9 µM, a TGI (K-562 leukemia) of 29.3 µM and a TGI (SR leukemia) of 34 µM. For the same molecule, the TGI (TK-10 renal) was 38 µM, the TGI (OVCAR-8 ovarian) was 49.6 µM and the TGI (HCC-2998 colon) was 47.1 µM. For the same molecule, the TGI (ACHN renal) was greater than 100 µM, the TGI (HOP-62 NSCLC) was 28.1 µM and the TGI (SW-620 colon) was greater than 100 µM. For the same molecule, the TGI (NCI-H522 lung) was 34 µM, the TGI (OVCAR-3 ovarian) was 32.9 µM and the TGI (A549 NSCLC) was 55.5 µM. For the same molecule, the TGI (CCRF-CEM leukemia) was 44.1 µM, the TGI (NCI-H23 lung) was 41.7 µM and the TGI (LXFL 529 NSCLC) was 35.7 µM. For the same molecule, the TGI (HL-60(TB) leukemia) was 30.5 µM, the TGI (COLO 205 colon) was 33.6 µM and the TGI (SNB-19 CNS) was 41 µM. For the same molecule, the TGI (SNB-75 CNS) was 10.2 µM, the TGI (KM20L2 colon) was 35.3 µM and the TGI (SK-MEL-2 melanoma) was 38.1 µM. The TGI (HCT-116 colon) was 31.5 µM, the TGI (UO-31 renal) was 43.5 µM and the TGI (OVCAR-5 ovarian) was greater than 100 µM. The TGI (OVCAR-4 ovarian) was 27.8 µM, the TGI (U251 CNS) was 28.2 µM and the TGI (UACC-62 melanoma) was 36.9 µM. For the same molecule, the TGI (IGROV1 ovarian) was 47.1 µM, the TGI (KM12 colon) was 41.7 µM and the TGI (DMS 273 small cell lung) was 51.8 µM. It also gave a TGI (M14 melanoma) of 30.3 µM, a TGI (DLD-1 colon) greater than 100 µM and a TGI (MALME-3M melanoma) of 34.2 µM. It also gave a TGI (HT29 colon) of 29.8 µM, a TGI (SF-539 CNS) of 23.8 µM and a TGI (NCI-H226 lung) of 66.7 µM. For the same molecule, the TGI (SK-MEL-5 melanoma) was 54.3 µM, the TGI (SF-295 CNS) was 37.7 µM and the TGI (DMS 114 small cell lung) was 40.4 µM. The TGI (SF-268 CNS) was greater than 100 µM, the TGI (MOLT-4 leukemia) was 50.6 µM and the TGI (786-0 renal) was 27.7 µM. It also gave a TGI (HOP-92 NSCLC) of 39.9 µM, a TGI (M19-MEL melanoma) of 50 µM and a TGI (UACC-257 melanoma) of 42.1 µM.
`CCCCCCCC(=O)OC[n+]1ccc(-c2c(COC(=O)NC(C)C)c(COC(=O)NC(C)C)c3n2CCC3)cc1` showed a TGI (RPMI-8226 leukemia) of 66.2 µM, a TGI (CAKI-1 renal) of 62.7 µM and a TGI (SK-OV-3 ovarian) greater than 100 µM. It also gave a TGI (HCT-15 colon) greater than 100 µM, a TGI (NCI-H460 lung) greater than 100 µM and a TGI (K-562 leukemia) greater than 100 µM. It also gave a TGI (SR leukemia) greater than 56 µM, a TGI (DU-145 prostate) greater than 59.8 µM and a TGI (TK-10 renal) greater than 100 µM. The TGI (OVCAR-8 ovarian) was greater than 100 µM, the TGI (HCC-2998 colon) was greater than 100 µM and the TGI (ACHN renal) was 68.9 µM. It also gave a TGI (MDA-MB-435) greater than 100 µM, a TGI (HOP-62 NSCLC) greater than 100 µM and a TGI (SW-620 colon) of 60.8 µM. For the same molecule, the TGI (NCI-H522 lung) was greater than 59.6 µM, the TGI (NCI/ADR-RES ovarian) was greater than 100 µM and the TGI (OVCAR-3 ovarian) was greater than 100 µM. It also gave a TGI (MDA-N) greater than 100 µM, a TGI (A549 NSCLC) greater than 100 µM and a TGI (CCRF-CEM leukemia) greater than 60.3 µM. It also gave a TGI (NCI-H23 lung) greater than 100 µM, a TGI (HL-60(TB) leukemia) of 52.4 µM and a TGI (COLO 205 colon) greater than 100 µM. The TGI (SNB-19 CNS) was greater than 100 µM, the TGI (SNB-75 CNS) was greater than 100 µM and the TGI (SK-MEL-2 melanoma) was 47.1 µM. For the same molecule, the TGI (HCT-116 colon) was greater than 71.4 µM, the TGI (UO-31 renal) was greater than 100 µM and the TGI (OVCAR-5 ovarian) was greater than 100 µM. It also gave a TGI (RXF 393 renal) of 49.9 µM, a TGI (OVCAR-4 ovarian) greater than 100 µM and a TGI (EKVX NSCLC) greater than 100 µM. The TGI (U251 CNS) was greater than 100 µM, the TGI (UACC-62 melanoma) was 33.5 µM and the TGI (MDA-MB-231 breast) was greater than 100 µM. For the same molecule, the TGI (IGROV1 ovarian) was greater than 68.3 µM, the TGI (PC-3 prostate) was greater than 100 µM and the TGI (KM12 colon) was greater than 100 µM. It also gave a TGI (M14 melanoma) greater than 100 µM, a TGI (SN12C renal) greater than 100 µM and a TGI (T-47D breast) greater than 100 µM. The TGI (MALME-3M melanoma) was greater than 90.6 µM, the TGI (LOX IMVI melanoma) was 54 µM and the TGI (BT-549 breast) was greater than 94.1 µM. It also gave a TGI (HT29 colon) greater than 100 µM, a TGI (SF-539 CNS) greater than 66.3 µM and a TGI (NCI-H226 lung) greater than 100 µM. The TGI (SK-MEL-5 melanoma) was greater than 100 µM, the TGI (SF-295 CNS) was greater than 100 µM and the TGI (MCF7 breast) was greater than 100 µM. The TGI (SF-268 CNS) was greater than 73.8 µM, the TGI (MOLT-4 leukemia) was greater than 59 µM and the TGI (786-0 renal) was greater than 79.8 µM. The TGI (HOP-92 NSCLC) was 83.8 µM, the TGI (HS 578T breast) was greater than 100 µM and the TGI (UACC-257 melanoma) was greater than 100 µM. It also gave a TGI (SK-MEL-28 melanoma) greater than 100 µM and a TGI (A498 renal) of 85.1 µM.
Work on `Nc1ncnc2c1ncn2C1OC(CSC(F)(F)F)C(O)C1O` (stereo unspecified) yielded a TGI (RPMI-8226 leukemia) greater than 100 µM, a TGI (CAKI-1 renal) greater than 100 µM and a TGI (SK-OV-3 ovarian) greater than 100 µM. For the same molecule, the TGI (HCT-15 colon) was greater than 100 µM, the TGI (NCI-H460 lung) was greater than 100 µM and the TGI (K-562 leukemia) was greater than 100 µM. It also gave a TGI (TK-10 renal) greater than 100 µM, a TGI (OVCAR-8 ovarian) greater than 100 µM and a TGI (HCC-2998 colon) greater than 100 µM. For the same molecule, the TGI (ACHN renal) was greater than 100 µM, the TGI (SNB-78 CNS) was greater than 100 µM and the TGI (HOP-62 NSCLC) was greater than 100 µM. For the same molecule, the TGI (SW-620 colon) was greater than 100 µM, the TGI (HOP-18 NSCLC) was greater than 100 µM and the TGI (NCI-H522 lung) was greater than 100 µM. It also gave a TGI (OVCAR-3 ovarian) greater than 100 µM, a TGI (A549 NSCLC) greater than 100 µM and a TGI (CCRF-CEM leukemia) greater than 100 µM. The TGI (NCI-H23 lung) was greater than 100 µM, the TGI (LXFL 529 NSCLC) was greater than 100 µM and the TGI (HL-60(TB) leukemia) was greater than 100 µM. The TGI (COLO 205 colon) was greater than 100 µM, the TGI (SNB-75 CNS) was greater than 100 µM and the TGI (KM20L2 colon) was greater than 100 µM. For the same molecule, the TGI (SK-MEL-2 melanoma) was greater than 100 µM, the TGI (HCT-116 colon) was greater than 100 µM and the TGI (UO-31 renal) was greater than 100 µM. The TGI (OVCAR-5 ovarian) was greater than 100 µM, the TGI (OVCAR-4 ovarian) was greater than 100 µM and the TGI (EKVX NSCLC) was greater than 100 µM. It also gave a TGI (U251 CNS) greater than 100 µM, a TGI (UACC-62 melanoma) greater than 100 µM and a TGI (IGROV1 ovarian) greater than 100 µM. It also gave a TGI (KM12 colon) greater than 100 µM, a TGI (DMS 273 small cell lung) greater than 100 µM and a TGI (M14 melanoma) greater than 100 µM. The TGI (DLD-1 colon) was greater than 100 µM, the TGI (SN12C renal) was greater than 100 µM and the TGI (MALME-3M melanoma) was greater than 100 µM. It also gave a TGI (LOX IMVI melanoma) greater than 100 µM, a TGI (HT29 colon) greater than 100 µM and a TGI (SF-539 CNS) greater than 100 µM. For the same molecule, the TGI (NCI-H226 lung) was greater than 100 µM, the TGI (SK-MEL-5 melanoma) was greater than 100 µM and the TGI (SF-295 CNS) was greater than 100 µM. The TGI (DMS 114 small cell lung) was greater than 100 µM, the TGI (SF-268 CNS) was greater than 100 µM and the TGI (MOLT-4 leukemia) was greater than 100 µM. For the same molecule, the TGI (786-0 renal) was greater than 100 µM, the TGI (HOP-92 NSCLC) was greater than 100 µM and the TGI (M19-MEL melanoma) was greater than 100 µM. For the same molecule, the TGI (UACC-257 melanoma) was greater than 100 µM, the TGI (SK-MEL-28 melanoma) was greater than 100 µM and the TGI (A498 renal) was greater than 100 µM.
